Test results reported in the NIST ThermoML archive (doi:10.1007/s10765-010-0737-5).

Test: xn = mol fraction of the nth substance listed
Settings: Liquid; for viscosity: 101 kPa, Capillary tube (Ostwald / Ubbelohde) method; for mass density: 101.3 kPa

CCCCCl [1-chlorobutane] + CC(C)OC(C)C
Settings | mass density [kg/m3] | viscosity [mPa·s]
283.15 K, x1 = 0.0466 | 740.095 | 0.3698
283.15 K, x1 = 0.0991 | 747.139 | 0.3755
283.15 K, x1 = 0.1918 | 759.833 | 0.3863
283.15 K, x1 = 0.3234 | 778.726 | 0.4028
283.15 K, x1 = 0.4199 | 793.339 | 0.4153
283.15 K, x1 = 0.516 | 808.586 | 0.4283
283.15 K, x1 = 0.623 | 826.434 | 0.4433
283.15 K, x1 = 0.7154 | 842.63 | 0.4568
283.15 K, x1 = 0.8157 | 861.003 | 0.4715
283.15 K, x1 = 0.9098 | 879.099 | 0.4857
283.15 K, x1 = 0.9559 | 888.28 | 0.4927
283.15 K, x1 = 1 | 897.339 | 0.4993
288.15 K, x1 = 0.0466 | 734.99 | 0.3535
288.15 K, x1 = 0.0991 | 741.966 | 0.359
288.15 K, x1 = 0.1918 | 754.629 | 0.3689
288.15 K, x1 = 0.3234 | 773.471 | 0.3838
288.15 K, x1 = 0.4199 | 788.055 | 0.3951
288.15 K, x1 = 0.516 | 803.274 | 0.4068
288.15 K, x1 = 0.623 | 821.073 | 0.4202
288.15 K, x1 = 0.7154 | 837.246 | 0.4321
288.15 K, x1 = 0.8157 | 855.588 | 0.4453
288.15 K, x1 = 0.9098 | 873.635 | 0.4579
288.15 K, x1 = 0.9559 | 882.81 | 0.4641
288.15 K, x1 = 1 | 891.855 | 0.4701
293.15 K, x1 = 0.0466 | 729.792 | 0.3385
293.15 K, x1 = 0.0991 | 736.75 | 0.3435
293.15 K, x1 = 0.1918 | 749.383 | 0.3528
293.15 K, x1 = 0.3234 | 768.192 | 0.3662
293.15 K, x1 = 0.4199 | 782.731 | 0.3763
293.15 K, x1 = 0.516 | 797.924 | 0.3868
293.15 K, x1 = 0.623 | 815.68 | 0.3988
293.15 K, x1 = 0.7154 | 831.821 | 0.4094
293.15 K, x1 = 0.8157 | 850.133 | 0.4212
293.15 K, x1 = 0.9098 | 868.142 | 0.4323
293.15 K, x1 = 0.9559 | 877.303 | 0.4379
293.15 K, x1 = 1 | 886.335 | 0.4433
298.15 K, x1 = 0.0466 | 724.56 | 0.3222
298.15 K, x1 = 0.0991 | 731.492 | 0.3273
298.15 K, x1 = 0.1918 | 744.091 | 0.336
298.15 K, x1 = 0.3234 | 762.854 | 0.3487
298.15 K, x1 = 0.4199 | 777.351 | 0.3583
298.15 K, x1 = 0.516 | 792.506 | 0.3682
298.15 K, x1 = 0.623 | 810.177 | 0.3793
298.15 K, x1 = 0.7154 | 826.321 | 0.3893
298.15 K, x1 = 0.8157 | 844.587 | 0.4003
298.15 K, x1 = 0.9098 | 862.556 | 0.411
298.15 K, x1 = 0.9559 | 871.691 | 0.4162
298.15 K, x1 = 1 | 880.705 | 0.4214
303.15 K, x1 = 0.0466 | 719.283 | 0.3048
303.15 K, x1 = 0.0991 | 726.204 | 0.3098
303.15 K, x1 = 0.1918 | 738.777 | 0.3188
303.15 K, x1 = 0.3234 | 757.526 | 0.3318
303.15 K, x1 = 0.4199 | 771.984 | 0.3415
303.15 K, x1 = 0.516 | 787.119 | 0.3514
303.15 K, x1 = 0.623 | 804.761 | 0.3628
303.15 K, x1 = 0.7154 | 820.882 | 0.3726
303.15 K, x1 = 0.8157 | 839.124 | 0.3837
303.15 K, x1 = 0.9098 | 857.076 | 0.3944
303.15 K, x1 = 0.9559 | 866.204 | 0.3998
303.15 K, x1 = 1 | 875.204 | 0.405
308.15 K, x1 = 0.0466 | 713.967 | 0.2903
308.15 K, x1 = 0.0991 | 720.87 | 0.2953
308.15 K, x1 = 0.1918 | 733.414 | 0.3043
308.15 K, x1 = 0.3234 | 752.126 | 0.317
308.15 K, x1 = 0.4199 | 766.553 | 0.3266
308.15 K, x1 = 0.516 | 781.656 | 0.3362
308.15 K, x1 = 0.623 | 799.266 | 0.3472
308.15 K, x1 = 0.7154 | 815.358 | 0.3569
308.15 K, x1 = 0.8157 | 833.567 | 0.3677
308.15 K, x1 = 0.9098 | 851.486 | 0.3781
308.15 K, x1 = 0.9559 | 860.595 | 0.3833
308.15 K, x1 = 1 | 869.585 | 0.3885
313.15 K, x1 = 0.0466 | 708.604 | 0.2765
313.15 K, x1 = 0.0991 | 715.486 | 0.2811
313.15 K, x1 = 0.1918 | 728.002 | 0.2891
313.15 K, x1 = 0.3234 | 746.649 | 0.3005
313.15 K, x1 = 0.4199 | 761.063 | 0.309
313.15 K, x1 = 0.516 | 776.136 | 0.3175
313.15 K, x1 = 0.623 | 793.704 | 0.3274
313.15 K, x1 = 0.7154 | 809.769 | 0.3359
313.15 K, x1 = 0.8157 | 827.935 | 0.3456
313.15 K, x1 = 0.9098 | 845.816 | 0.3548
313.15 K, x1 = 0.9559 | 854.913 | 0.3594
313.15 K, x1 = 1 | 863.882 | 0.3642

CC(C)(C)Cl [2-chloro-2-methylpropane] + CC(C)OC(C)C
Settings | mass density [kg/m3] | viscosity [mPa·s]
283.15 K, x1 = 0.049 | 738.51 | 0.3693
283.15 K, x1 = 0.0996 | 743.477 | 0.3746
283.15 K, x1 = 0.1991 | 753.625 | 0.386
283.15 K, x1 = 0.3212 | 766.738 | 0.4025
283.15 K, x1 = 0.4189 | 777.752 | 0.4183
283.15 K, x1 = 0.5148 | 789.053 | 0.4365
283.15 K, x1 = 0.6213 | 802.211 | 0.4606
283.15 K, x1 = 0.7152 | 814.386 | 0.4862
283.15 K, x1 = 0.8138 | 827.842 | 0.5182
283.15 K, x1 = 0.9079 | 841.347 | 0.555
283.15 K, x1 = 0.9552 | 848.401 | 0.5761
283.15 K, x1 = 1 | 855.249 | 0.598
288.15 K, x1 = 0.049 | 733.338 | 0.3531
288.15 K, x1 = 0.0996 | 738.271 | 0.358
288.15 K, x1 = 0.1991 | 748.35 | 0.3683
288.15 K, x1 = 0.3212 | 761.373 | 0.3827
288.15 K, x1 = 0.4189 | 772.308 | 0.3963
288.15 K, x1 = 0.5148 | 783.527 | 0.412
288.15 K, x1 = 0.6213 | 796.59 | 0.4328
288.15 K, x1 = 0.7152 | 808.683 | 0.4549
288.15 K, x1 = 0.8138 | 822.038 | 0.4829
288.15 K, x1 = 0.9079 | 835.446 | 0.5154
288.15 K, x1 = 0.9552 | 842.442 | 0.5342
288.15 K, x1 = 1 | 849.243 | 0.5538
293.15 K, x1 = 0.049 | 728.121 | 0.3381
293.15 K, x1 = 0.0996 | 733.024 | 0.3425
293.15 K, x1 = 0.1991 | 743.024 | 0.3515
293.15 K, x1 = 0.3212 | 755.959 | 0.3641
293.15 K, x1 = 0.4189 | 766.815 | 0.376
293.15 K, x1 = 0.5148 | 777.959 | 0.3894
293.15 K, x1 = 0.6213 | 790.929 | 0.4075
293.15 K, x1 = 0.7152 | 802.935 | 0.4268
293.15 K, x1 = 0.8138 | 816.186 | 0.4512
293.15 K, x1 = 0.9079 | 829.489 | 0.4796
293.15 K, x1 = 0.9552 | 836.437 | 0.4962
293.15 K, x1 = 1 | 843.191 | 0.5135
298.15 K, x1 = 0.049 | 722.867 | 0.3217
298.15 K, x1 = 0.0996 | 727.738 | 0.3258
298.15 K, x1 = 0.1991 | 737.666 | 0.3342
298.15 K, x1 = 0.3212 | 750.506 | 0.3458
298.15 K, x1 = 0.4189 | 761.288 | 0.3564
298.15 K, x1 = 0.5148 | 772.351 | 0.3686
298.15 K, x1 = 0.6213 | 785.231 | 0.3845
298.15 K, x1 = 0.7152 | 797.145 | 0.4014
298.15 K, x1 = 0.8138 | 810.301 | 0.4229
298.15 K, x1 = 0.9079 | 823.502 | 0.4476
298.15 K, x1 = 0.9552 | 830.397 | 0.4619
298.15 K, x1 = 1 | 837.096 | 0.4768
303.15 K, x1 = 0.049 | 717.578 | 0.304
303.15 K, x1 = 0.0996 | 722.412 | 0.308
303.15 K, x1 = 0.1991 | 732.264 | 0.3164
303.15 K, x1 = 0.3212 | 745.013 | 0.3277
303.15 K, x1 = 0.4189 | 755.716 | 0.3379
303.15 K, x1 = 0.5148 | 766.702 | 0.3492
303.15 K, x1 = 0.6213 | 779.484 | 0.3639
303.15 K, x1 = 0.7152 | 791.308 | 0.3791
303.15 K, x1 = 0.8138 | 804.365 | 0.3979
303.15 K, x1 = 0.9079 | 817.467 | 0.4191
303.15 K, x1 = 0.9552 | 824.312 | 0.4313
303.15 K, x1 = 1 | 830.958 | 0.4438
308.15 K, x1 = 0.049 | 712.24 | 0.2892
308.15 K, x1 = 0.0996 | 717.039 | 0.2928
308.15 K, x1 = 0.1991 | 726.821 | 0.3006
308.15 K, x1 = 0.3212 | 739.479 | 0.3115
308.15 K, x1 = 0.4189 | 750.102 | 0.3216
308.15 K, x1 = 0.5148 | 761.005 | 0.3327
308.15 K, x1 = 0.6213 | 773.688 | 0.3468
308.15 K, x1 = 0.7152 | 785.436 | 0.3613
308.15 K, x1 = 0.8138 | 798.392 | 0.3787
308.15 K, x1 = 0.9079 | 811.393 | 0.398
308.15 K, x1 = 0.9552 | 818.179 | 0.4087
308.15 K, x1 = 1 | 824.772 | 0.4196
313.15 K, x1 = 0.049 | 706.856 | 0.2751
313.15 K, x1 = 0.0996 | 711.61 | 0.2783
313.15 K, x1 = 0.1991 | 721.328 | 0.2856
313.15 K, x1 = 0.3212 | 733.893 | 0.2963
313.15 K, x1 = 0.4189 | 744.44 | 0.3061
313.15 K, x1 = 0.5148 | 755.257 | 0.3171
313.15 K, x1 = 0.6213 | 767.848 | 0.3306
313.15 K, x1 = 0.7152 | 779.502 | 0.3436
313.15 K, x1 = 0.8138 | 792.362 | 0.3586
313.15 K, x1 = 0.9079 | 805.256 | 0.3741
313.15 K, x1 = 0.9552 | 811.996 | 0.3824
313.15 K, x1 = 1 | 818.536 | 0.3904
